{"source": "paper PMC10700139", "about": "(Nature, 2023)", "key": {"PtCAL-1a/PtCAL-2a": {"target": "T1, PtCAL-1a/PtCAL-2a (Phlegmariurus tetrastichus, UniProt P0DXL1+P0DXL3)", "T1 construct": "N-terminal signal peptide[58], which would be cleaved during processing and trafficking of these proteins; made in house; host or cells: Nicotiana benthamiana leaves (Agrobacterium transient co-expression, pEAQ-HT), concentrated apoplast extract", "T1 sequence (P0DXL1 22-280)": "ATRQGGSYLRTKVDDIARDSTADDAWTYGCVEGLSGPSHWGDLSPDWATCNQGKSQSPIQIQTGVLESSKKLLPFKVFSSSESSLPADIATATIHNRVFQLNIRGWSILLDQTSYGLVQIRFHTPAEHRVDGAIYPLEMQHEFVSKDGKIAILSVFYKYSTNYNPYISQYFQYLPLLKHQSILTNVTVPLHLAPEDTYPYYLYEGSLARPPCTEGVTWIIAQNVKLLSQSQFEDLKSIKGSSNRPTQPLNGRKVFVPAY", "T1 sequence (P0DXL3 24-284)": "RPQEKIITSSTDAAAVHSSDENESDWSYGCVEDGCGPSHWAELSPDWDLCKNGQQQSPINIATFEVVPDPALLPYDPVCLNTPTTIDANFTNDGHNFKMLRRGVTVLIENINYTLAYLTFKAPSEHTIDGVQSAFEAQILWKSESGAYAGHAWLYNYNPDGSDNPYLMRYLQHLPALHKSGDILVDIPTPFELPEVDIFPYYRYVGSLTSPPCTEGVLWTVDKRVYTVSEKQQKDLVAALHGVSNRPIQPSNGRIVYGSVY", "test": "In vitro reactions with apoplastic PtCAL-1a/PtCAL-2a (formation of 9, decarboxylation of 3, Zn chelator)", "format": "biochemical", "description": "The three CAL proteins identified in this study have predicted N-terminal signal peptides, which were identified using the TargetP-2.0 server (https://services.healthtech.dtu.dk/service.php?TargetP-2.0)[58]. […] To assess this possibility, CAL genes with or without C-terminal 6xHis tags were transiently expressed in N. benthamiana, as described above. Each CAL gene was expressed individually; also, PtCAL-1a and PtCAL-2a were transiently co-expressed in the same leaf because we had found them to cofunction in Lycopodium alkaloid biosynthesis. At 4 days after Agrobacterium infiltration, apoplast protein extracts were isolated using the infiltration–centrifugation method, much as previously described. Two leaves per reaction were excised from the plant and submerged in ice-cold apoplast extraction buffer (100 mM MES, 300 mM NaCl, pH 5.5) in an open-capped 50 ml Falcon tube and these tubes were placed in a plastic vacuum chamber attached to a Welch Model 2025 vacuum pump. The chamber was brought down to full vacuum and after 2 min at this pressure, the vacuum was slowly released to allow for buffer to infiltrate the leaf apoplastic space. Buffer-infiltrated leaves were carefully removed from the Falcon tubes, blotted dry with paper towels and were then rolled into Parafilm and placed in a plungerless 5 ml plastic syringe. The syringe was placed in a 15 ml Falcon tube and this was then centrifuged at 1,000g and 4 °C for 10 min to collect apoplast extract. The resulting extract was centrifuged at 10,000g and 4 °C for 15 min to pellet any larger cellular debris and the supernatant was concentrated using an Amicon Ultra-4 Centrifugal Filter Unit (10 kDA MWCO, MilliporeSigma UFC501024). Protein concentrations were measured using the BIO-RAD Protein Assay or Bradford assay (Abcam 119216) and adjusted with apoplast extraction buffer to a final concentration between 0.5 and 1.5 mg ml^−1. Aliquots of the extracts were snap frozen in liquid nitrogen and stored at −80 °C.\nReactions with CAL-enriched apoplast were routinely performed in low-pH potassium phosphate buffer (50 mM potassium phosphate, 100 mM NaCl, pH 5.9) at a volume of 20 µl. For PtCAL-1a/PtCAL-2a, these reactions contained approximately 1.4 µg of apoplast protein for each CAL (final concentration of 0.07 µg µl^−1). Control reactions used apoplast from leaves expressing only one CAL or with apoplast generated from GFP-expression N. benthamiana leaves. The requisite substrates for this reaction were generated through the activities of in vitro PtPIKS-1 and PtCYP782C1 enzyme reactions. […]. To generate 3 and 4 as potential substrates, 1 µg of previously purified PtPIKS-1 enzyme[23] and 150 µM 1 and 300 µM malonyl-CoA were added directly to the CAL reaction mixtures. After thorough mixing, reactions were incubated at room temperature. An alternative route for producing 3 and 4 independently of thioester intermediates was achieved by mixing stocks of 1 (10 mM in water) and 2 (10 mM in water; always prepared fresh to minimize compound decomposition) in equal proportion, followed by incubation at room temp for 1–2 h, as these two substrates can non-enzymatically condense to yield 3 (which can spontaneously decarboxylate to produce 4). A 2 µl aliquot of this mixture was then added as a component of the PtCAL-1a/PtCAL-2a enzyme reaction (20 µl total reaction volume) in addition to the PtCYP782C1 microsomal reaction mixture. After predesignated incubation times, reactions were quenched by diluting tenfold into ACN with 0.1% formic acid.\nTo evaluate the potential decarboxylation of β-keto acid substrates by PtCAL-1/PtCAL-2 and PtCAL-3, only 3 or 2, respectively, were added as substrate. PtCAL-1/PtCAL-2 reactions were quenched by diluting aliquots tenfold into ACN with 0.1% formic acid and were subsequently analysed through HILIC LC–MS. PtCAL-3 reactions were quenched by mixing aliquots with an equal volume of water with 0.2% formic acid and were then analysed through C18 LC–MS. […]"}, "[1]": {"test": "Stability of PtCYP782C1 products in leaf extract incubated at room temperature", "format": "physicochemical", "settings": "samples incubated at room temperature for 1 h", "protocol": "The production of (2S, 4S)-6 and (2S, 4R)-6 was consistent with our hypothesis for elimination-mediated formation of the proposed diene (8). Because formation of 8 would require oxidation of the O-acetylated substrate(s), we next screened CYP and 2OGD family enzymes found in cluster131. […] This coincided with the presence of two new compounds: one that corresponded to a single oxidation (desaturation) of the O-acetylated substrate (7, [M + H]^+ = m/z 184.1332, retention time 1.86 min), as well as another which shared the same exact mass as 8 ([M + H]^+ = m/z 124.1121, retention time 1.93 min). […] Although this limited our ability to access authentic standards, tandem mass spectrometry (MS/MS or MS^2) analysis supported the proposed structures of 7 and 8 and ultraviolet (UV) analysis of 8 corroborated the presence of the predicted α,β-unsaturated imine in this molecule[34] (Extended Data Fig. 2c,d). […]\nExtended Data Fig. 2 Functional characterization of PtCYP782C1. a) Transient expression of PtCYP782C1 with a biosynthetic module for the production of 6 diastereomers (PtLDC, PtCAO, PtPIKS, PtSDR-1 or PtSDR-2 and PtACT-1) in N. benthamiana. […] Product abundance is calculated as the integration of the peak generated in the EIC for each mass ion. g) Relative activity of PtCYP782C1 microsomes at varying pH, as determined via production of both 7 and 8. […]"}, "several insect species": {"tested_on": "several insect species", "design": "method as in PMID 11804518", "settings": "cited from earlier work"}}, "note": "Several values for one entry are separate records, joined by “and”; a condition that tells them apart may be missing. Identical values can stand only once."}
{"compound": "O=C(O)CC(=O)CC1CCCCN1", "note": "(centres unmarked) [compound 3, 4-(2-piperidyl)acetoacetic acid]", "values": [{"measurement": "ratio of 4 ion abundance (m/z 142.1226) to that of 3 (m/z 186.1125)", "setting": "PtCAL-1a/PtCAL-2a; PtCAL-1a/PtCAL-2a +3 (ED 4h)", "result": "31.4694 and 27.1428 and 38.6295"}, {"measurement": "ratio of 4 ion abundance (m/z 142.1226) to that of 3 (m/z 186.1125)", "setting": "PtCAL-1a/PtCAL-2a; PtCAL-1a/PtCAL-2a +3, 0.25 hrs (ED 4g)", "result": "66.6374 and 57.9149 and 54.0594"}, {"measurement": "ratio of 4 ion abundance (m/z 142.1226) to that of 3 (m/z 186.1125)", "setting": "PtCAL-1a/PtCAL-2a; PtCAL-1a/PtCAL-2a +3, 0.5 hrs (ED 4g)", "result": "59.9271 and 67.8727 and 55.7877"}, {"measurement": "ratio of 4 ion abundance (m/z 142.1226) to that of 3 (m/z 186.1125)", "setting": "PtCAL-1a/PtCAL-2a; PtCAL-1a/PtCAL-2a +3, 1 hrs (ED 4g)", "result": "70.6508 and 59.4497 and 51.4084"}, {"measurement": "ratio of 4 ion abundance (m/z 142.1226) to that of 3 (m/z 186.1125)", "setting": "PtCAL-1a/PtCAL-2a; PtCAL-1a/PtCAL-2a +3, 2 hrs (ED 4g)", "result": "57.1082 and 53.747 and 49.4186"}]}
{"compound": "CC(=O)OC(C)CC1=NCCCC1", "note": "(centres unmarked) [compound 7]", "values": [{"measurement": "stability of compound in sample", "setting": "[1]", "result": "almost entirely lost"}]}
{"compound": "C/C=C/C1=NCCCC1", "note": "[compound 8]", "values": [{"measurement": "stability of compound in sample", "setting": "[1]", "result": "almost entirely lost"}]}
{"compound": "C/C=C1\\[C@H]2C=C(C)C[C@]1(N)c1ccc(=O)[nH]c1C2", "note": "[compound 17, huperzine A]", "values": [{"measurement": "antifeedant activity", "setting": "several insect species", "result": "antifeedant activity"}]}
